Experiments:
PC-12 [1] = assay: Neuroprotective activity against oxygen-glucose deprivation-induced cell injury in rat PC12 cells assessed as cell viability at 1 uM; type: functional; settings: read-out: Activity
Aorta [2] = assay: Vasorelaxant activity in rat aortic ring assessed as inhibition of phenylephrine-induced contraction relative to control; type: functional
Aorta [3] = assay: Vasorelaxant activity in rat aortic ring assessed as inhibition of phenylephrine-induced contraction; type: functional, tissue-based
PC-12 [4] = assay: Neuroprotective activity against oxygen-glucose deprivation-induced cell injury in rat PC12 cells assessed as cell viability; type: functional, cell-based
PC-12 [5] = assay: Neuroprotective activity against oxygen-glucose deprivation-induced cell injury in rat PC12 cells assessed as cell viability at 30 uM; type: functional; settings: read-out: Activity

Structure (SMILES)	viability at 1 µM (PC-12 [1]) [%]	Emax (Aorta [2]) [%]	EC50 (Aorta [3]) [µM]	Activity (PC-12 [4])	viability at 30 µM (PC-12 [5]) [%]
CC(C)=CCc1c(O)cc(O)c2c(=O)cc(-c3ccc(O)c(O)c3)oc12	91.5	62.5			
CC(C)=CCc1c(O)cc(O)c2c(=O)cc(-c3ccc(O)c(O)c3O)oc12	88.6				
CC(C)=CCc1c(O)cc(O)c2c1O/C(=C\c1ccc(O)cc1O)C2=O	90.4	30.5			
CC(C)=CCc1c(O)cc(O)c2c(=O)cc(-c3ccc(O)cc3O)oc12	93.5	91.5	176	Dose-dependent effect	
COc1cc(C2CC(=O)c3c(O)cc(O)c(CC=C(C)C)c3O2)ccc1O (centres undefined)	94			Dose-dependent effect	
CC1=NN(c2ccccc2)C(=O)C1 [EDARAVONE]					93.2
CC(C)=CCc1c(O)cc(O)c2c1OC(c1ccc(O)cc1)CC2=O (centres undefined) [SOPHORAFLAVANONE B]	89.3	101	72.7		
CC(C)=CCc1c(O)cc(O)c2c1OC(c1ccc(O)cc1O)CC2=O (racemic)	94.8	94.9	9.3	Dose-dependent effect	
CC(C)=CCc1c(O)cc(O)c2c1OC(c1cccc(Br)c1)CC2=O (centres undefined)	88.1				
COc1cc([C@@H]2CC(=O)c3c(O)cc(O)cc3O2)ccc1O (racemic) [HOMOERIODICTYOL]	89.1	74.9	82		
CC(C)=CCc1c(O)cc(O)c2c1O/C(=C\c1ccc(O)cc1)C2=O	81.6	74.5			
O=c1c(O)c(-c2ccc(O)c(O)c2)oc2cc(O)cc(O)c12 [QUERCETIN]		91.3			
CC(C)=CCc1c(O)cc(O)c(C(=O)/C=C/c2ccc(O)cc2)c1O [DEMETHYLXANTHOHUMOL]	86.7	81.4	8.5		
COc1cc(C2CC(=O)c3c(O)cc(O)c(CC=C(C)C)c3O2)cc(OC)c1OC (centres undefined)	89.1	66.3	25		
CC(C)=CCc1c(O)cc(O)c2c1OC(c1ccc(O)c(O)c1O)CC2=O (centres undefined)	90.3	69.7			

From ChEMBL document CHEMBL1781897, “Synthesis, biological evaluation of prenylflavonoids as vasorelaxant and neuroprotective agents” (Bioorg Med Chem Lett, 2009)
